Laboratory results reported in paper PMC12724200 (mSphere, 2025).
In brackets after ≈: the same amount, converted by molar mass. Where two headings read alike, the source gives them in different places.

How the values were obtained:
A549 = conditions: human
OCT313-resistant BCG = experiment: microbe, parasite or virus in culture; format: cell-based, Mycobacterium bovis BCG
MRC-5 = conditions: human
M. tuberculosis H37Rv = experiment: microbe, parasite or virus in culture; format: cell-based, Mycobacterium tuberculosis
Staphylococcus aureus = experiment: microbe, parasite or virus in culture; format: cell-based
M. avium 104 = experiment: microbe, parasite or virus in culture; format: cell-based, Mycobacterium avium
THP-1 = conditions: human
M. bovis = experiment: microbe, parasite or virus in culture; format: cell-based, Mycobacterium bovis
Escherichia coli DH5α = experiment: microbe, parasite or virus in culture; format: cell-based
M. smegmatis mc^2 155 = experiment: microbe, parasite or virus in culture; format: cell-based, Mycobacterium smegmatis
M. bovis BCG Tokyo 172 [1] = experiment: microbe, parasite or virus in culture; format: cell-based, Mycobacterium bovis BCG
[2] = target: recombinant wild-type M. bovis BCG PTA (Mycobacterium bovis, UniProt A0A679LAX5); experiment: biochemical; format: biochemical
Sequence of recombinant wild-type M. bovis BCG PTA (A0A679LAX5 1-690): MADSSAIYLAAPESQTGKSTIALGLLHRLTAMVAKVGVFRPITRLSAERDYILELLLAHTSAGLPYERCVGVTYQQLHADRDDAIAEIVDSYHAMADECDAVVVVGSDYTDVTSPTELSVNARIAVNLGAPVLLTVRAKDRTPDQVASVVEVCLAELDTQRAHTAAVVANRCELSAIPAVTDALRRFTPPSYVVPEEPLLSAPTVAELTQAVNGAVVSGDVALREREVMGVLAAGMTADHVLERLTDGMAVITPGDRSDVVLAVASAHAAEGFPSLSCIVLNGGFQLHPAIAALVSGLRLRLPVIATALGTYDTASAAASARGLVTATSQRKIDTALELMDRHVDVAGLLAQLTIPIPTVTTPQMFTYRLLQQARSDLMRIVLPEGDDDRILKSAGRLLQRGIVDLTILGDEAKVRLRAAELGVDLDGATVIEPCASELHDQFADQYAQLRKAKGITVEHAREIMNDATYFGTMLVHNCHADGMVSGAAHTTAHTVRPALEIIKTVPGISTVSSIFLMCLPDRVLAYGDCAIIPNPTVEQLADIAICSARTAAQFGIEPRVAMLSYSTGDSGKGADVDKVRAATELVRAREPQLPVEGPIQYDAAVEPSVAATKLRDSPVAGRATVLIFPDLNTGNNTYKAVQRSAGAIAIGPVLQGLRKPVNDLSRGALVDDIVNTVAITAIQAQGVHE

M. bovis BCG Tokyo 172 [3] = format: cell-based, Mycobacterium bovis BCG
L. mesenteroides PTA = L. mesenteroides PTA (Leuconostoc mesenteroides, UniProt Q03W64); format: biochemical
Sequence of L. mesenteroides PTA (Q03W64 1-326): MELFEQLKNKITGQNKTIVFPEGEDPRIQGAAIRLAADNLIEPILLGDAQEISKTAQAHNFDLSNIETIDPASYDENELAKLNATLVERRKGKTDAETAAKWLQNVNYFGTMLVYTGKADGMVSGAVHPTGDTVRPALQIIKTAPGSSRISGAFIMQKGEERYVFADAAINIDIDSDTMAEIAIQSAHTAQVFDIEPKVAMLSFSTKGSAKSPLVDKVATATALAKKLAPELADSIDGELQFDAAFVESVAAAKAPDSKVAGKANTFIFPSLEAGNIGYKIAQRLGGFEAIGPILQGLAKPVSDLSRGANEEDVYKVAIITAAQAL

[4] = system: OCT313-resistant BCG strains OCTR_3 and OCTR_4; format: cell-based, Mycobacterium bovis BCG
[5] = Mycobacterium tuberculosis variant bovis BCG, BCG, 336 h
[6] = Mycobacterium tuberculosis, H37RV
[7] = Mycobacterium tuberculosis, H37RV, 336 h
[8] = Mycobacterium avium, 104, 168 h
[9] = Mycobacterium tuberculosis variant bovis, 336 h
[10] = Mycolicibacterium smegmatis, MC^2155, 72 h

| Compound | 85% survival conc. (A549) | LC50/MIC (A549) | MIC (OCT313-resistant BCG; [5]) [mg/L] | 85% survival conc. (MRC-5) | LC50/MIC (MRC-5) | MIC (M. tuberculosis H37Rv; [6]) [mg/L] | MIC (M. tuberculosis H37Rv; [7]) [mg/L] | MIC (Staphylococcus aureus; Staphylococcus aureus) [mg/L] | MIC (M. avium 104; [8]) [mg/L] | 85% survival conc. (THP-1) | LC50/MIC (THP-1) | MIC (M. bovis; [9]) [mg/L] | MIC (Escherichia coli DH5α; Escherichia coli) [mg/L] | MIC (M. smegmatis mc^2 155; [10]) [mg/L] | MIC (M. bovis BCG Tokyo 172 [1]; [5]) [mg/L] | Antibacterial activity in Wayne dormancy model (M. bovis BCG Tokyo 172 [3]) | other results |
| --- | --- | --- | --- | --- | --- | --- | --- | --- | --- | --- | --- | --- | --- | --- | --- | --- | --- |
| CC[C@@H](CO)NCCN[C@@H](CC)CO [EB, ethambutol] | 1,000 μg/mL | 1,434 | 3 (≈ 14.7 µM) | 250 µg/mL | 111 | 2.5 (≈ 12.2 µM) | 2.5 (≈ 12.2 µM) | > 100 | 1.6 (≈ 7.83 µM) | 500 µg/mL | 916 | 0.78 (≈ 3.82 µM) | > 100 | 12.5 (≈ 61.2 µM) | 3 (≈ 14.7 µM) | – | – |
| CC(=O)N[C@@H]1[C@@H](O)[C@H](O)[C@@H](CO)O[C@@H]1O [GlcNAc, N-acetyl-D-glucosamine] | – | – | – | – | – | – | – | – | – | – | – | – | – | – | – | – | MIC (OCT313-resistant BCG): >1,000 μg/mL; Inhibition of PTA enzyme activity (in words) [2]: not sufficient to inhibit enzyme activity; MIC (M. tuberculosis H37Rv): >1,000 μg/mL; MIC (Staphylococcus aureus): >1,000 μg/mL; MIC (M. avium 104): >1,000 μg/mL; MIC (M. bovis): >1,000 μg/mL; MIC (Escherichia coli DH5α): >1,000 μg/mL; MIC (M. smegmatis mc^2 155): >1,000 μg/mL; MIC (M. bovis BCG Tokyo 172 [1]): >1,000 μg/mL |
| NNC(=O)c1ccncc1 [INH, isoniazid] | 1,000 μg/mL | 77,277 | 0.04 (≈ 0.292 µM) | 250 µg/mL | 7,325 | 0.04 (≈ 0.292 µM) | 0.04 (≈ 0.292 µM) | > 100 | 1.56 (≈ 11.4 µM) | 100 µg/mL | 53,613 | 0.04 (≈ 0.292 µM) | > 100 | 3.13 (≈ 22.8 µM) | 0.04 (≈ 0.292 µM) | showed reduced activity | – |
| Cc1ncc([N+](=O)[O-])n1CCO [MTZ, metronidazole] | – | – | – | – | – | – | – | – | – | – | – | – | – | – | – | showed antibacterial activity | – |
| CCN1C(=O)C=CC1=O [NEM, N-ethylmaleimide] | – | – | – | – | – | – | – | – | – | – | – | – | – | – | – | – | IC50 [2]: 14.5 µM; IC50 (L. mesenteroides PTA): 50.9 µM |
| CC(=O)N[C@@H]1[C@@H](O)[C@H](O)[C@@H](CO)O[C@H]1SC(=S)N(C)C [OCT313, 2-acetamido-2-deoxy-β-D-glucopyranosyl N,N-dimethyldithiocarbamate] | 500 µg/mL | 188 | > 200 | 2,500 μg/mL | 242 | 25 (≈ 77.1 µM) | 25 (≈ 77.1 µM) | > 100 | > 100 | 1,250 μg/mL | 356 | 31.3 (≈ 96.5 µM) | > 100 | > 100 | 12.5 (≈ 38.5 µM) | susceptible to OCT313 in a dose-dependent manner | Change of 50% lethal concentration (LD50) by sugar derivatization (A549): 196 fold; MIC (OCT313-resistant BCG; Mycobacterium tuberculosis variant bovis BCG, BCG): > 100 mg/L; Change of 50% lethal concentration (LD50) by sugar derivatization (MRC-5): 550 fold; IC50 [2]: 2.79 µM; Inhibition pattern (Lineweaver-Burk plots) [2]: mixed inhibition; Change of 50% lethal concentration (LD50) by sugar derivatization (THP-1): 27 fold; IC50 (L. mesenteroides PTA): > 1000 µM |
| CO[C@H]1/C=C/O[C@@]2(C)Oc3c(C)c(O)c4c(O)c(c(/C=N/N5CCN(C)CC5)c(O)c4c3C2=O)NC(=O)/C(C)=C\C=C\[C@H](C)[C@H](O)[C@@H](C)[C@@H](O)[C@@H](C)[C@H](OC(C)=O)[C@@H]1C [RFP, rifampicin] | 10 µg/mL | 44,510 | 0.01 (≈ 0.0122 µM) | 10 µg/mL | 16,250 | 0.004 (≈ 0.00486 µM) | 0.004 (≈ 0.00486 µM) | 0.02 (≈ 0.0243 µM) | 0.25 (≈ 0.304 µM) | 10 µg/mL | 16,256 | 0.016 (≈ 0.0194 µM) | 12.5 (≈ 15.2 µM) | 1.56 (≈ 1.9 µM) | 0.01 (≈ 0.0122 µM) | – | – |
| [H]/N=C(/N)N[C@H]1[C@H](O)[C@@H](O)[C@H](O[C@@H]2O[C@@H](C)[C@](O)(C=O)[C@H]2O[C@@H]2O[C@@H](CO)[C@H](O)[C@@H](O)[C@@H]2NC)[C@@H](N/C(N)=N\[H])[C@@H]1O [SM, streptomycin] | 5,000 μg/mL | 31,350 | 0.2 (≈ 0.344 µM) | 1,000 μg/mL | 4,175 | 0.4 (≈ 0.688 µM) | 0.39 (≈ 0.671 µM) | 6.25 (≈ 10.7 µM) | 3.13 (≈ 5.38 µM) | 100 µg/mL | 17,908 | 0.2 (≈ 0.344 µM) | 25 (≈ 43 µM) | 0.39 (≈ 0.671 µM) | 0.2 (≈ 0.344 µM) | – | – |
| Dimethyldithiocarbamate [DMDC] | – | – | – | – | – | – | – | – | – | – | – | – | – | – | – | – | MIC (OCT313-resistant BCG): 12.5 mg/L; Inhibition of PTA enzyme activity (in words) [2]: did not inhibit PTA; MIC (M. tuberculosis H37Rv): 1.56 mg/L; MIC (Staphylococcus aureus): 25 mg/L; Antibacterial activity in Wayne dormancy model [4]: similar; MIC (M. bovis): 3.13 mg/L; MIC (Escherichia coli DH5α): 200 mg/L; MIC (M. smegmatis mc^2 155): >100 mg/L; MIC (M. bovis BCG Tokyo 172 [1]): 3.13 mg/L |
